Read-outs that look alike come from different tables or passages of the source.
Experiments:
[1] = test system: platelet-rich plasma of healthy human donors; experiment: Determination of platelet aggregation by the method of Born and Cross (collagen-induced, platelet-rich plasma); format: cell-based; details: 10^-4 mol/lit., compared with control batch without test compound; for inhibition at 100 µM: Homo sapiens, Platelet
Protocol: 1. Determination of platelet aggregation by the method of Born and Cross (see J. Physiol. 170, 397 (1964)):
The platelet aggregation was measured in the platelet-rich plasma of healthy human donors. The alterations of the optical density of the platelet suspension was measured and recorded photometrically after the addition of commercial collagen manufactured by Hormonchemie, Munich, Germany, containing 1 mgm of collagen fibrils per ml. From the angle of inclination of the density curve, the rate of aggregation was estimated (Vmax). The optical density (O.D.) was taken at the point on the curve where the most light was transmitted. Small doses of collagen were chosen, but sufficient to give irreversible aggregation. To provoke maximum aggregation, about 0.01 ml of the collagen solution was added to 1 ml of platelet-rich plasma.
The numbers in Table I represent the % reduction in the aggregation rate (Vmax) and the % change in optical density (O.D.), compared with a control batch without addition of a test compound.

[2] = Acute toxicity in white mice after oral application of a single dose; format: in vivo; details: mouse, in vivo, observation time 14 days
Protocol: (§1) The acute toxicity of the compounds was determined in white mice (observation time: 14 days) after oral application of a single dose: […]

[3] = test system: white mice; experiment: as above; format: in vivo; details: 1000 mgm/kg, observation time 14 days
Protocol: as §1

[4] = test system: mice; experiment: Determination of the prolongation of the bleeding time; format: in vivo; details: 10 mgm/kg orally, awake mice, compared with untreated control group
Protocol: 2. determination of the prolongation of the bleeding time:
To determine the effect on the bleeding time, 10 mgm/kg of the test compound were administered orally to awake, unanesthetized mice. After 1 hour, and again after 3 hours, about 0.5 mm from the end of the tail of each animal was cut off, and the exuded blood was carefully soaked up into filter paper every 30 seconds. The number of drops of blood so obtained provided a measure for the bleeding time (5 animals/experiment).
The numbers in Table II represent the prolongation in %, compared with an untreated control group: […]

[5] = read-out: % Reduction (change) in optical density (O.D.)
[6] = read-out: % Reduction in the aggregation rate (Vmax)

SMILES | inhibition at 100 µM [1, 5] [%] | inhibition at 100 µM [1, 6] [%] | LD50 at 336 h [2] [mg/kg] | Acute toxicity: animals died [3] | Prolongation of the bleeding time in % after 1 hour [4] [%] | % Reduction (change) in optical density (O.D.) ([1]; 100 µM) [%] | % Reduction in the aggregation rate (Vmax) ([1]; 100 µM) [%] | Prolongation of the bleeding time in % after 3 hours [4] [%]
CC(c1ccc(C2CCCCC2)c(Cl)c1)[S+]([O-])CC(=O)N1CCCCC1 (stereo not drawn) [E, [1-(3'-chloro-4'-cyclohexyl-phenyl)-ethylsulfinyl]-acetic acid piperidide] | 92 | 90 | > 1000 | 0 out of 10 | 37 |  |  | 
COC(=O)C[S+]([O-])C(C)c1ccc(C2CCCCC2)c(Cl)c1 (stereo not drawn) [C, methyl [1-(3'-chloro-4'-cyclohexyl-phenyl)-ethylsulfinyl]-acetate] | 89 | 85 |  |  |  |  |  | 
CCOC(=O)C[S+]([O-])C(C)c1ccc(C2CCCCC2)c(Cl)c1 (stereo not drawn) [D, Ethyl [1-(3'-chloro-4'-cyclohexyl-phenyl)-ethylsulfinyl]-acetate] |  |  |  |  | 49 | 89 | 87 | 
CC(c1ccc(C2CCCCC2)cc1)[S+]([O-])CC(=O)O (stereo not drawn) [Compound A, [1-(4'-cyclohexyl-phenyl)-ethylsulfinyl]-acetic acid] |  |  | > 1000 | 0 out of 10 | 300 |  |  | 122
COC(=O)C[S+]([O-])C(C)c1ccc(C2CCCCC2)cc1 (stereo not drawn) [B, methyl [1-(4'-cyclohexyl-phenyl)-ethylsulfinyl]-acetate] |  |  | > 1000 | 0 out of 10 | 117 |  |  | 51

From US4062973A, “Sulfur-containing derivatives of cyclohexylphenyl-ethane” (Boehringer Ingelheim GmbH, priority 1975, dated 1977)
